Experimental data taken from patent publication US20180203025A1, “HDL THERAPY MARKERS” (Cerenis Therapeutics Holding SA, priority 2014, published 2018).

How the values were obtained:
[1] = test system: ABCA1 mRNA in HepG2 (human hepatocytes); test: ABCA1 mRNA in HepG2 hepatocytes; type: cell-based; conditions: Study K, 0.25, 25 and 250 μg/mL, 6 hours
Method: (§1) HepG2 (human hepatocytes) and Hepa1-6 (mouse hepatocytes) were seeded on 6 well plates (300,000 cells/well) in DMEM 10% FCS. […] Gene expression was assayed using the protocols described in Sections 8.3.2 (RNA extraction); 8.3.4 (reverse transcription), and 8.3.5 (qPCR). ABCA1 (Taqman probe Hs01059118.m1 and Mm00442646.m1 for respectively HepG2 and Hepa1-6) and SR-BI (Taqman probe Hs00969821.m1 and Mm00450234.m1 for respectively HepG2 and Hepa1-6) expression was determined according to the manufacturer's protocol. The reference gene used is HPRT1 (Taqman probe: Mm00446968.m1) for Hepa1-6 and GAPDH (Taqman probe: Hs03929097.g1) for HepG2 cells.

[2] = test system: SR-BI mRNA in HepG2 (human hepatocytes); test: SR-BI mRNA in HepG2 hepatocytes; type: cell-based; conditions: Study K, 0.25, 25 and 250 μg/mL, 6 hours
Method: as §1

[3] = Plasma cholesterol mobilization in apoE−/− mice; type: in vivo, mouse
Method: The formulation was injected in the retro-orbital vein (50 μL/mouse) of mice anaesthetized with isoflurane, once every 2 days for 8 injections. The dose administered was based on the mean of mice bodyweight in each cage. The compounds were injected at 10 AM every day. For blood sampling, mice fasted overnight were sampled once at the indicated dose: (1) at predose (at 9 AM) by retro-orbital withdrawal: 24 hours before the first injection/day of surgery; (2) at postdose (at 9 AM) by retro-orbital withdrawal: 24 hours after the last injection; and (3) at t=0 (9 AM) and the indicated time points after the 5th injection by caudal withdrawal. Immediately after collection, blood samples were kept at ca. +4° C. to avoid alteration of the blood sample. Blood specimens were centrifuged (800×g for 10 minutes at +4° C.) and plasma was saved for future analysis.
(§2) Add in each tube cholesterol standards (2 g/L): 0/0.625/1.25/1.875/2.5/3.75/5 μl. Centrifuge plasma samples at 12,000×g for 1 minute. Add 0.5 ml of the reconstituted buffer to each tube (standard and samples), vortex and incubate 5 minutes at 37° C. Transfer 150 μl from each tube to 2 different wells in a 96 well plate. Read absorbance at 500 nm.
as §2, with “of” for “of the”
This study examined the consequences of CER-001 administration on the lipoprotein profile in apoE^−/− mice fed with high fat diet. Blood was collected and analyzed at different time points after the 5th infusion. Plasma pre-dose (before the first injection) and plasma post-dose (24h after the last injection) were also compared. Plasma was analyzed for total and unesterified cholesterol and human ApoA-I contents.
Total and unesterified cholesterol concentrations were determined according to the procotols of Sections 9.2.5 and 9.2.6, respectively. Cholesterol ester concentrations are determined after subtracted unesterified cholesterol from total cholesterol. The mobilization of cholesterol was determined on 12 mice per group after the 5th administration (1 hour before injection; 1 h, 2h, 4h and 24h after injection). The animals were fasted overnight.

[4] = test system: ABCA1 in mouse ligatured carotids; test: Western blot of ABCA1 expression in ligatured carotids; type: in vivo
Method: Ligatured carotids previously extracted with chloroform:methanol were solubilized in NAOH 0.1N (100 μL/carotid). The solution was briefly sonicated and centrifuged at 15,000×g for 10 minutes. The protein concentration was determined with Bradford assay and 40 μg of sample were loaded on SDS-PAGE. The ABCA1 expression (ab7360—dilution 1/1000) was quantified using imageJ® software.

ABCA1 in mouse liver = test: ABCA1 protein content in mouse liver; type: in vivo; conditions: 24 hours after the last injection; increasing concentrations
Method: This study examined the SR-BI and ABCA1 protein content in the liver 24 hours after the last injection of CER-001. A piece of liver (50 mg) was lysed in PBS (500 μL) by brief sonication. The sample was centrifuged (800×g for 10 minutes) and the pellet was discarded. The supernatant was centrifuged for 30 minutes at 16,000×g at 4° C. and the pellet was solubilized with PBS 1% Triton X100 (200 μL). 10 μg of solubilized pellet was loaded on SDS PAGE 10% and ABCA1 expression (ab7360—dilution 1/1000) or SR-BI expression (ab24603—dilution 1/1000) was quantified using imageJ® software.

[5] = test system: diet-induced atherosclerosis in LDL receptor knock-out mice; conditions: several infusions; cited from earlier work

Substance: CER-001: engineered recombinant human apolipoprotein A-I HDL with sphingomyelin and DPPG; protein-to-phospholipid ratio 1:2.7, 97% Sph and 3% DPPG
- ABCA1 mRNA level [1]: No significant decrease
- SR-BI mRNA level [2]: No significant decrease
- plasma unesterified cholesterol concentration ([3]; 50 mg/kg, 2 and 4 hours after infusion): seemed to increase the plasma unesterified cholesterol concentration
- post-dose total and unesterified cholesterol concentrations compared to HDL3 treated mice ([3]; 24h after the last injection): two times higher
- doses increasing the cholesterol concentration in plasma compared to placebo ([3]; after 8 injections): above 10 mg/kg
- mobilization of unesterified cholesterol ([3]; after the 5th infusion): No significant changes
- total plasma cholesterol mobilization ([3]; after the 5th infusion): No significant changes
- carotid ABCA1 expression ([4]; 5 mg/kg): did not affect the ABCA1 expression
- carotid ABCA1 content ([4]; 50 mg/kg): decrease
- liver ABCA1 protein level (ABCA1 in mouse liver): increase in ABCA1 protein level
- vascular inflammation and atherosclerosis [5]: reduce vascular inflammation and promote regression of diet-induced atherosclerosis
